{"source": "patent US11274083B2", "about": "“Substituted thiophenyl uracils, salts thereof and the use thereof as herbicidal agents” (Syngenta Crop Protection AG, priority 2017, dated 2022)", "format_in_all_cases": "in vivo", "key": {"[1]": {"system": "Digitaria sanguinalis", "experiment": "Herbicidal action post-emergence, greenhouse pot test", "conditions": "application rate 20 g/ha"}, "[2]": {"system": "Digitaria sanguinalis", "experiment": "Herbicidal action pre-emergence, greenhouse pot test", "conditions": "application rate 80 g/ha", "source_text": "Seeds of mono- and dicotyledonous weeds and crop plants were laid out in plastic or organic plant pots and covered with soil. The compounds of the invention formulated in the form of wettable powders (WP) or as emulsion concentrates (EC) were then applied to the surface of the covering soil as an aqueous suspension or emulsion with addition of 0.5% additive at a water application rate equivalent to 600 L/ha. After the treatment, the pots were placed in a greenhouse and kept under good growth conditions for the test plants. After about 3 weeks, the efficacy of the preparations was scored visually as a percentage by comparison with untreated controls. For example, 100% efficacy=plants have died. 0% efficacy=like control plants."}, "[3]": {"system": "Triticum aestivum", "experiment": "Crop compatibility post-emergence, greenhouse pot test", "method_in_brief": "(§1)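 Crops grown in sandy loam in greenhouse pots; treated post-emergence at one-leaf stage, 2–3 weeks after sowing, spraying WP or EC formulations as aqueous suspension/emulsion with 0.5% additive at 600 L/ha. Damage scored visually after about 3 weeks against untreated controls (0% = like control, 100% = dead).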"}, "[4]": {"system": "Matricaria inodora", "experiment": "Herbicidal action pre-emergence, greenhouse pot test"}, "[5]": {"system": "Alopecurus myosuroides", "experiment": "Herbicidal action post-emergence, greenhouse pot test", "conditions": "application rate 20 g/ha, scored visually after about 3 weeks vs untreated controls", "method_in_brief": "(§2)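 Visual efficacy scoring (0% like untreated, 100% plant death) about 3 weeks post-treatment. Application, at ≤80 g/ha, was a post-emergence spray of wettable-powder or emulsion-concentrate formulations in water with 0.5% additive at 600 L/ha onto one-leaf-stage plants grown 2–3 weeks from seed in sandy loam.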"}, "[6]": {"system": "Setaria viridis", "experiment": "Herbicidal action post-emergence, greenhouse pot test", "method_in_brief": "as §2"}, "[7]": {"system": "Amaranthus retroflexus", "experiment": "Herbicidal action post-emergence, greenhouse pot test", "method_in_brief": "as §2"}, "[8]": {"system": "Echinochloa crus-galli", "experiment": "Herbicidal action post-emergence, greenhouse pot test", "method_in_brief": "as §2"}, "[9]": {"system": "Polygonum convolvulus", "experiment": "Herbicidal action post-emergence, greenhouse pot test", "method_in_brief": "as §2"}, "[10]": {"system": "Stellaria media", "experiment": "Herbicidal action post-emergence, greenhouse pot test", "method_in_brief": "as §2"}, "[11]": {"system": "Viola tricolor", "experiment": "Herbicidal action post-emergence, greenhouse pot test", "method_in_brief": "as §2"}, "[12]": {"system": "Abutilon theophrasti", "experiment": "Herbicidal action post-emergence, greenhouse pot test", "method_in_brief": "as §2"}, "[13]": {"system": "Veronica persica", "experiment": "Herbicidal action post-emergence, greenhouse pot test", "method_in_brief": "as §2"}, "[14]": {"system": "Matricaria inodora", "experiment": "Herbicidal action post-emergence, greenhouse pot test", "method_in_brief": "as §2"}, "[15]": {"system": "Pharbitis purpurea", "experiment": "Herbicidal action post-emergence, greenhouse pot test", "method_in_brief": "as §2"}, "[16]": {"system": "Setaria viridis", "experiment": "Herbicidal action pre-emergence, greenhouse pot test", "method_in_brief": "(§3)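 Pre-emergence soil-surface treatment at application rates of 320 g/ha or below, using WP or EC formulations in water (600 L/ha) plus 0.5% additive over freshly sown, soil-covered seeds. After roughly 3 weeks' greenhouse growth, damage rated visually against untreated plants, 0% meaning like control.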"}, "[17]": {"system": "Amaranthus retroflexus", "experiment": "Herbicidal action pre-emergence, greenhouse pot test", "conditions": "application rate 80 g/ha", "method_in_brief": "as §3"}, "[18]": {"system": "Echinochloa crus-galli", "experiment": "Herbicidal action pre-emergence, greenhouse pot test", "method_in_brief": "as §3"}, "[19]": {"system": "Polygonum convolvulus", "experiment": "Herbicidal action pre-emergence, greenhouse pot test", "method_in_brief": "as §3"}, "[20]": {"system": "Stellaria media", "experiment": "Herbicidal action pre-emergence, greenhouse pot test", "method_in_brief": "as §3"}, "[21]": {"system": "Viola tricolor", "experiment": "Herbicidal action pre-emergence, greenhouse pot test", "method_in_brief": "as §3"}, "[22]": {"system": "Abutilon theophrasti", "experiment": "Herbicidal action pre-emergence, greenhouse pot test", "method_in_brief": "as §3"}, "[23]": {"system": "Veronica persica", "experiment": "Herbicidal action pre-emergence, greenhouse pot test", "method_in_brief": "as §3"}, "[24]": {"system": "Pharbitis purpurea", "experiment": "Herbicidal action pre-emergence, greenhouse pot test", "method_in_brief": "as §3"}, "[25]": {"system": "Oryza sativa", "experiment": "Crop compatibility post-emergence, greenhouse pot test", "conditions": "application rate 5 g/ha", "method_in_brief": "as §1"}, "[26]": {"system": "Glycine max", "experiment": "Crop compatibility post-emergence, greenhouse pot test", "conditions": "application rate 5 g/ha", "method_in_brief": "as §1"}, "[27]": {"system": "Lolium rigidum", "experiment": "Herbicidal action post-emergence, greenhouse pot test", "conditions": "application rate 80 g/ha", "method_in_brief": "as §2"}, "[28]": {"system": "Alopecurus myosuroides", "experiment": "Herbicidal action pre-emergence, greenhouse pot test", "conditions": "application rate 320 g/ha", "method_in_brief": "as §3"}, "[29]": {"system": "Avena fatua", "experiment": "Herbicidal action pre-emergence, greenhouse pot test", "conditions": "application rate 320 g/ha", "method_in_brief": "as §3"}, "[30]": {"system": "Lolium rigidum", "experiment": "Herbicidal action pre-emergence, greenhouse pot test", "conditions": "application rate 320 g/ha", "method_in_brief": "as §3"}, "[31]": {"system": "Cyperus esculentus", "experiment": "Herbicidal action pre-emergence, greenhouse pot test", "conditions": "application rate 320 g/ha", "method_in_brief": "as §3"}, "[32]": {"system": "Hordeum murinum", "experiment": "Herbicidal action pre-emergence, greenhouse pot test", "conditions": "application rate 320 g/ha", "method_in_brief": "as §3"}}}
{"smiles": "CC(Sc1cc(-n2c(=O)cc(C(F)(F)F)n(C)c2=O)c(F)cc1Cl)C(=O)OC1C(=O)OCC1(C)C", "note": "(centres unmarked) [I.1-142]", "values": [{"measurement": "Digitaria sanguinalis (Efficacy in %)", "setting": "[1]", "value": 100, "unit": "%"}, {"measurement": "Digitaria sanguinalis (Efficacy in %)", "setting": "[2]", "value": 100, "unit": "%"}, {"measurement": "Triticum aestivum (Efficacy in %)", "setting": "[3]; application rate 20 g/ha", "value": 20, "unit": "%"}, {"measurement": "Matricaria inodora (Efficacy in %)", "setting": "[4]; application rate 80 g/ha", "value": 100, "unit": "%"}, {"measurement": "Alopecurus myosuroides (Efficacy in %)", "setting": "[5]", "value": 80, "unit": "%"}, {"measurement": "Setaria viridis (Efficacy in %)", "setting": "[6]; application rate 20 g/ha", "value": 100, "unit": "%"}, {"measurement": "Amaranthus retroflexus (Efficacy in %)", "setting": "[7]; application rate 20 g/ha", "value": 100, "unit": "%"}, {"measurement": "Echinochloa crus-galli (Efficacy in %)", "setting": "[8]; application rate 20 g/ha", "value": 100, "unit": "%"}, {"measurement": "Polygonum convolvulus (Efficacy in %)", "setting": "[9]; application rate 20 g/ha", "value": 100, "unit": "%"}, {"measurement": "Stellaria media (Efficacy in %)", "setting": "[10]; application rate 20 g/ha", "value": 100, "unit": "%"}, {"measurement": "Viola tricolor (Efficacy in %)", "setting": "[11]; application rate 20 g/ha", "value": 100, "unit": "%"}, {"measurement": "Abutilon theophrasti (Efficacy in %)", "setting": "[12]; application rate 20 g/ha", "value": 100, "unit": "%"}, {"measurement": "Veronica persica (Efficacy in %)", "setting": "[13]; application rate 20 g/ha", "value": 100, "unit": "%"}, {"measurement": "Matricaria inodora (Efficacy in %)", "setting": "[14]; application rate 20 g/ha", "value": 100, "unit": "%"}, {"measurement": "Pharbitis purpurea (Efficacy in %)", "setting": "[15]; application rate 20 g/ha", "value": 100, "unit": "%"}, {"measurement": "Setaria viridis (Efficacy in %)", "setting": "[16]; application rate 80 g/ha", "value": 100, "unit": "%"}, {"measurement": "Amaranthus retroflexus (Efficacy in %)", "setting": "[17]", "value": 100, "unit": "%"}, {"measurement": "Echinochloa crus-galli (Efficacy in %)", "setting": "[18]; application rate 80 g/ha", "value": 90, "unit": "%"}, {"measurement": "Polygonum convolvulus (Efficacy in %)", "setting": "[19]; application rate 80 g/ha", "value": 100, "unit": "%"}, {"measurement": "Stellaria media (Efficacy in %)", "setting": "[20]; application rate 80 g/ha", "value": 100, "unit": "%"}, {"measurement": "Viola tricolor (Efficacy in %)", "setting": "[21]; application rate 80 g/ha", "value": 100, "unit": "%"}, {"measurement": "Abutilon theophrasti (Efficacy in %)", "setting": "[22]; application rate 80 g/ha", "value": 100, "unit": "%"}, {"measurement": "Veronica persica (Efficacy in %)", "setting": "[23]; application rate 80 g/ha", "value": 100, "unit": "%"}, {"measurement": "Pharbitis purpurea (Efficacy in %)", "setting": "[24]; application rate 80 g/ha", "value": 90, "unit": "%"}]}
{"smiles": "CC(Sc1cc(-n2c(=O)cc(C(F)(F)F)n(C)c2=O)c(F)cc1Cl)C(=O)OCC(=O)N(C)C", "note": "(centres unmarked) [I.1-241]", "values": [{"measurement": "Oryza sativa (Efficacy in %)", "setting": "[25]", "value": 10, "unit": "%"}, {"measurement": "Glycine max (Efficacy in %)", "setting": "[26]", "value": 10, "unit": "%"}, {"measurement": "Triticum aestivum (Efficacy in %)", "setting": "[3]; application rate 5 g/ha", "value": 10, "unit": "%"}, {"measurement": "Matricaria inodora (Efficacy in %)", "setting": "[4]; application rate 320 g/ha", "value": 100, "unit": "%"}, {"measurement": "Setaria viridis (Efficacy in %)", "setting": "[6]; application rate 80 g/ha", "value": 100, "unit": "%"}, {"measurement": "Amaranthus retroflexus (Efficacy in %)", "setting": "[7]; application rate 80 g/ha", "value": 100, "unit": "%"}, {"measurement": "Echinochloa crus-galli (Efficacy in %)", "setting": "[8]; application rate 80 g/ha", "value": 100, "unit": "%"}, {"measurement": "Polygonum convolvulus (Efficacy in %)", "setting": "[9]; application rate 80 g/ha", "value": 100, "unit": "%"}, {"measurement": "Stellaria media (Efficacy in %)", "setting": "[10]; application rate 80 g/ha", "value": 100, "unit": "%"}, {"measurement": "Viola tricolor (Efficacy in %)", "setting": "[11]; application rate 80 g/ha", "value": 100, "unit": "%"}, {"measurement": "Lolium rigidum (Efficacy in %)", "setting": "[27]", "value": 90, "unit": "%"}, {"measurement": "Abutilon theophrasti (Efficacy in %)", "setting": "[12]; application rate 80 g/ha", "value": 100, "unit": "%"}, {"measurement": "Veronica persica (Efficacy in %)", "setting": "[13]; application rate 80 g/ha", "value": 100, "unit": "%"}, {"measurement": "Matricaria inodora (Efficacy in %)", "setting": "[14]; application rate 80 g/ha", "value": 100, "unit": "%"}, {"measurement": "Pharbitis purpurea (Efficacy in %)", "setting": "[15]; application rate 80 g/ha", "value": 100, "unit": "%"}, {"measurement": "Alopecurus myosuroides (Efficacy in %)", "setting": "[28]", "value": 100, "unit": "%"}, {"measurement": "Setaria viridis (Efficacy in %)", "setting": "[16]; application rate 320 g/ha", "value": 100, "unit": "%"}, {"measurement": "Amaranthus retroflexus (Efficacy in %)", "setting": "[17]", "value": 100, "unit": "%"}, {"measurement": "Avena fatua (Efficacy in %)", "setting": "[29]", "value": 100, "unit": "%"}, {"measurement": "Echinochloa crus-galli (Efficacy in %)", "setting": "[18]; application rate 320 g/ha", "value": 100, "unit": "%"}, {"measurement": "Polygonum convolvulus (Efficacy in %)", "setting": "[19]; application rate 320 g/ha", "value": 100, "unit": "%"}, {"measurement": "Stellaria media (Efficacy in %)", "setting": "[20]; application rate 320 g/ha", "value": 100, "unit": "%"}, {"measurement": "Viola tricolor (Efficacy in %)", "setting": "[21]; application rate 320 g/ha", "value": 100, "unit": "%"}, {"measurement": "Lolium rigidum (Efficacy in %)", "setting": "[30]", "value": 100, "unit": "%"}, {"measurement": "Abutilon theophrasti (Efficacy in %)", "setting": "[22]; application rate 320 g/ha", "value": 100, "unit": "%"}, {"measurement": "Cyperus esculentus (Efficacy in %)", "setting": "[31]", "value": 100, "unit": "%"}, {"measurement": "Hordeum murinum (Efficacy in %)", "setting": "[32]", "value": 100, "unit": "%"}, {"measurement": "Veronica persica (Efficacy in %)", "setting": "[23]; application rate 320 g/ha", "value": 100, "unit": "%"}, {"measurement": "Pharbitis purpurea (Efficacy in %)", "setting": "[24]; application rate 320 g/ha", "value": 100, "unit": "%"}]}
